Results reported in PMC7842235 (Journal of proteome research, 2020).

Molecular target: T1, Tryp-N (Thermochaetoides thermophila, UniProt G0SEK4)
T1 sequence (G0SEK4 68-292): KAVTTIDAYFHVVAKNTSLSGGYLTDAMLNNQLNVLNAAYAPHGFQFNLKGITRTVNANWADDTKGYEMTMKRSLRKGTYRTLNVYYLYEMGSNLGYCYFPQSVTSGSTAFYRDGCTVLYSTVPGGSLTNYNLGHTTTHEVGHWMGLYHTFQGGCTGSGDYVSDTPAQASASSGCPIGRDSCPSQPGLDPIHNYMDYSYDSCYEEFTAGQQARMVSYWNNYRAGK
Experiment: protease activity assay, probably FITC-labeled casein
Assay type: biochemical

IC50: ~500 µM
Structure (SMILES): N=C(N)c1ccccc1 [benzamidine]
